# Laboratory results as given in patent US11021455B2, “Brominated furanone derivative, method for preparing same, and pharmaceutical composition containing same as active ingredient” (SEOUL NATIONAL UNIVERSITY R&DB FOUNDATION, priority 2016, dated 2021).
# Like-named read-outs stand apart in the source and are kept apart here.
# Key:
# [1] = system: biofilms of F. nucleatum, givalis and T. forsythia; test: Biofilm morphology, confocal scanning laser microscope technique; assay type: cell-based; conditions: live/dead staining; FIG. 22
# Experimental: (§1) Particularly, a sterilized cover glass slip (round shape with a radius of 12 mm) was placed on each well of a cell culture plate (24 well plate) by using a pincette. F. nucleatum A1-2 was added to cell culture medium (BHI medium+supplements) at the volume of 10% by the total volume.
# (§2) The compounds of examples of the present invention were diluted to make the final concentration of each compound of 2 μM, 0.2 μM and 0.02 μM (BH1 medium: Brain Heart Infusion Medium, supplements: hemin (10 μg/ml) and vitamin K (0.2 μg/ml)).
# (§3) The prepared culture solution was added to each well of the plate where the glass slip was placed, and the desired number of bacteria was inoculated into each well (F. nucleatum: 2×10^7 cells/ml, P. gingivalis: 4×10^8 cells/ml, T. forsythia: 2×10^8 cells/ml).
# (§4) The prepared well plate was incubated at 37° C. under anaerobic condition (10% H2, 10% CO2 and 80% N2) for 48 hours for the culture of bacteria. The biofilm formed on the glass slip by the bacteria cultured in each group was quantitatively and comparatively analyzed using the following techniques.
# The glass slip whereon biofilm had been formed was stained by using a live/dead-BacLight bacterial viability kit (Invitrogen, Grand Island, N.Y., USA), and the morphology of the biofilm was observed under a confocal scanning laser microscope and compared.
# [2] = system: P. gingivalis biofilm; test: Inhibition of biofilm formation, crystal violet staining (OD595); assay type: cell-based; conditions: 2000 nM, 200 nM and 20 nM; FIG. 21
# Experimental: (§5) Particularly, a sterilized cover glass slip (round shape with a radius of 12 mm) was placed on each well of a cell culture plate (24 well plate) by using a pincette. F. nucleatum A1-2 was added to cell culture medium (BHI medium+supplements) at the volume of 10% by the total volume. The compounds of examples of the present invention were diluted to make the final concentration of each compound of 2 μM, 0.2 μM and 0.02 μM (BH1 medium: Brain Heart Infusion Medium, supplements: hemin (10 μg/ml) and vitamin K (0.2 μg/ml)). The prepared culture solution was added to each well of the plate where the glass slip was placed, and the desired number of bacteria was inoculated into each well (F. nucleatum: 2×10^7 cells/ml, P. gingivalis: 4×10^8 cells/ml, T. forsythia: 2×10^8 cells/ml). For the positive control not treated with the compounds of examples of the present invention (F.n AI-2), F. nucleatum AI-2 was added to the cell culture medium (BHI+supplements) and then the same number of cells was inoculated. In the meantime, for the negative control treated neither the compound of the present invention nor F. nucleatum A1-2 (Fn), PBS was added to the cell culture medium (BHI+supplements) instead of F. nucleatum A1-2 at the same volume as the above. The prepared well plate was incubated at 37° C. under anaerobic condition (10% H2, 10% CO2 and 80% N2) for 48 hours for the culture of bacteria. The biofilm formed on the glass slip by the bacteria cultured in each group was quantitatively and comparatively analyzed using the following techniques. […] 200 μl of the decolorizing solution containing crystal violet was added to each well of the microplate, and OD595 was measured using a microplate reader (Microplate reader, Model 550, Bio-Rad, USA). The measured values were compared among the groups (As the biofilm formation increased by the molecules secreted by F. nucleatum was suppressed by the compound of the present invention, the measured value was decreased.).
# [3] = system: F. nucleatum biofilm; test: as above; assay type: cell-based; conditions: 20 nM; compared with furanone treated control group; FIG. 20
# Experimental: as §5
# [4] = system: biofilm formation of bacteria; test: Evaluation of inhibition of biofilm formation (overall statements); assay type: cell-based; conditions: FIG. 20 to FIG. 21; 2000 nM, 200 nM and 20 nM
# Experimental: as §1, §2, §3, §4
# The glass slip whereon biofilm had been formed was stained with 1% crystal violet solution for 10 minutes, followed by washing with PBS (phosphate buffered saline) three times, and decolorized with acetone-alcohol.
# 200 μl of the decolorizing solution containing crystal violet was added to each well of the microplate, and OD595 was measured using a microplate reader (Microplate reader, Model 550, Bio-Rad, USA). The measured values were compared among the groups (As the biofilm formation increased by the molecules secreted by F. nucleatum was suppressed by the compound of the present invention, the measured value was decreased.).
# [5] = system: IL-6 and IL-8 genes in THP-1 cells; test: Effect on host cell immunity: IL-6 and IL-8 gene expression by real-time RT-PCR in THP-1 cells; assay type: cell-based, human
# Experimental: (§6) To evaluate the effect of the compounds of the present invention on host cell (normal cell) immunity, the host cells were treated with the compounds of the present invention, followed by investigation of the activity of proinflammatory cytokines in host cells.
# (§7) Particularly, in order to investigate whether or not the compounds of the present invention were able to induce inflammatory responses in host cells, the expression levels of proinflammatory cytokines including interleukin (IL)-6 and IL-8 were measured by real-time RT-PCR. THP-1 cells (1×10^6 cells/well) and HGF cells (2×10^5 cells/well) were distributed in a 6 well plate, followed by culture in the presence or absence of the compounds of examples (5, 6 and 13) or lipopolysaccharide (LPS, 1 mg) known as an endotoxin of Gram negative bacteria that causes a strong immune response in host cells at 37° C. for 24 hours. Upon completion of the 24 hour culture, RNA was extracted from the THP-1 and HGF cells by using Easy-Blue total RNA extraction kit (iNtRON Biotechnology, Seongnam, Korea) according to the manufacturer's protocol. A cDNA sample ([…]) synthesized from the extracted RNA ([…]) using MMLV reverse transcription kit (Promega, Madison, Wis.) was added to each primer pair (10 pM) and Power SYBR Green Master Mix (Applied Biosystems, Warrington, UK) at the reaction volume of […]. The mixture was applied to ABI PRISM 7500 Fast Real-Time PCR system (Applied Biosystems, Foster City, Calif., USA) by using thermocycling (thermocycling: denaturation at 95° C. for 15 seconds, annealing and extension at 60° C. for 1 minute). Glyceraldehyde 3-phosphate dehydrogenase (GAPDH) gene was used as a reference gene to normalize the gene expression levels of inflammatory cytokines including interleukin 6 (IL-6) and interleukin 8 (IL-8).
# [6] = system: IL-6 and IL-8 genes in HGF cells; test: Effect on host cell immunity: IL-6 and IL-8 gene expression by real-time RT-PCR in HGF cells; assay type: cell-based, human
# Experimental: as §6, §7
induction of IL-6 and IL-8 gene expression (inflammatory response) in THP-1 cells [5],Compound,biofilm inhibitory activity (general statement) [4],"induction of IL-6 and IL-8 gene expression (inflammatory response) in HGF cells ([6]; human, 24 h)",other results
–,"O=C1OC(=C(Br)Br)c2ccccc21 [Example 2, 3-(dibromomethylene)isobenzofuran-1(3H)-one]",–,–,inhibition of biofilm formation seen in confocal photographs [1]: inhibited the biofilm formation of bacteria
–,"O=C1OC(=C(Br)Br)C2=C1CCCC2 [Example 3, 3-(dibromomethylene)-4,5,6,7-tetrahydroisobenzofuran-1(3H)-one]",–,–,P. gingivalis biofilm inhibitory activity (OD595) [2]: excellent P. gingivalis biofilm inhibitory activity
–,"O=C1OC(=C(Br)Br)C2=C1CCC2 [Example 4, 3-(dibromomethylene)-5,6-dihydro-3H-cyclopenta[c]furan-1(4H)-one]",–,–,F. nucleatum biofilm inhibitory activity (OD595) [3]: superior F. nucleatum biofilm inhibitory activity at the concentration of 20 nM to the furanone treated control group; inhibition of biofilm formation seen in confocal photographs [1]: inhibited the biofilm formation of bacteria
not to induce inflammatory responses,"O=C1OC(=C(Br)Br)C2CCCC12 (stereo not shown) [Example 5, 3-(dibromomethylene)-hexahydrocyclopenta[c]furan-1(3H)-one]",particularly excellent in inhibiting biofilm formation,did not induce the expressions of IL-6 and IL-8 genes,F. nucleatum biofilm inhibitory activity (OD595) [3]: superior F. nucleatum biofilm inhibitory activity at the concentration of 20 nM to the furanone treated control group
not to induce inflammatory responses,"Cc1ccc2c(c1)C(=C(Br)Br)OC2=O [Example 6, 3-(dibromomethylene)-5-methylisobenzofuran-1(3H)-one]",particularly excellent in inhibiting biofilm formation,did not induce the expressions of IL-6 and IL-8 genes,–
not to induce inflammatory responses,"Cc1cccc2c1C(=O)OC2=C(Br)Br [Example 13, 3-(dibromomethylene)-7-methylisobenzofuran-1(3H)-one]",particularly excellent in inhibiting biofilm formation,did not induce the expressions of IL-6 and IL-8 genes,–
–,"lipopolysaccharide [LPS, reference compound]",–,–,"induction of IL-6 and IL-8 gene expression (inflammatory response) in THP-1 cells ([5]; 24 hours, normalised to GAPDH, FIG. 26): induced the expressions of IL-6 and IL-8 genes; induction of IL-6 and IL-8 gene expression (inflammatory response) in HGF cells ([6]; 24 hours, normalised to GAPDH, FIG. 27): induced the expressions of both cytokines"
